Assay results reported in patent publication US11679168B2, “Caspase-3-triggered molecular self-assembling PET probes and uses thereof” (The Board of Trustees of the Leland Stanford Junior …, priority 2018, dated 2023).

Test: Stability of [18F]-C-SNAT4 in mouse serum (HPLC)
Assay type: in vitro ADME
Details: 37° C., over 2 h incubation
Method: FIG. 1B illustrates the serum stability of [^18F]-C-SNAT4 in mouse serum. [^18F]-C-SNAT4 was incubated in serum at 37° C. and analyzed by HPLC.
At 24 h post treatment, mixture tracer of [^19F]-C-SNAT4 was injected with [^18F]-C-SNAT4 (mixture ratio at 1:200) through the tail vein for PET imaging (FIG. 24A-24C). For treated animal, tumor uptake of mixture tracer [^18F]/[^19F]-C-SNAT4 and [^18F]-C-SNAT4 were 2.9±0.3% ID/cc and 1.7±0.1% ID/cc, respectively at 85 min post injection. There was 1.7-fold increase of radioactivity in the mixture-treated mice. Overall, the uptake of [^18F]-C-SNAT4 was increased both in radiation and drug-treated tumors. In contrast, the tumor uptake of [^18F]/[^19F]-C-SNAT4 (ratio at 1:200) and [^18F]/[^19F]-C-SNAT4 (ratio at 1:80) in untreated tumor was 0.5±0.2% ID/cc and 0.3±0.2% ID/cc, respectively at 85 min after injection (FIG. 25A-25C), followed by a rapid signal decay back to baseline within a few minutes. There were no changes compared to the uptake of [^18F]-C-SNAT4 (0.4±0.1% ID/cc). […] The sample was centrifuged at 13,400 g for 10 min and […] of the resultant supernatant was diluted with […] of water and analyzed on HPLC. % intact tracer was calculated as %=(peak area for tracer/total peak area on the HPLC chromatogram)×100.

SMILES: CCSSCC(NC(=O)C(CC(=O)O)NC(=O)C(NC(=O)C(CCC(=O)O)NC(=O)C(CC(=O)O)NC(C)=O)C(C)C)C(=O)NCC(=O)NC(Cc1cn(CCOCCOCCOCC[18F])nn1)C(=O)NCc1ccc(C(=O)NCCCOc2cnc(C#N)nc2)cc1 (stereo not shown) [[^18F]-C-SNAT4]
- percentage of [18F]-C-SNAT4 remained: 77.2%
